Data on 11 compounds can be found in US10323027B2, “2,3-dihydro-4H-1,3-benzoxazin-4-one derivatives as modulators of cholinergic muscarinic M1 receptor” (Takeda Pharmaceutical Company Limited, priority 2015, dated 2019).

Where a name gives a salt, the structure may show the parent alone.

The subject of experiment [1] is Myo-Inositol 1 Phosphate (IP1). Kind of experiment: Measurement of myo-inositol 1 phosphate (IP1) in rat hippocampi after oral administration (Experimental Example 3). As to conditions: IP1 production (IP1/protein) in rat hippocampi; 10 mg/kg oral; relative to Vehicle administration group as 100%. Type of experiment: in vivo, male Long-Evans rats. The procedure:
Measurement of Myo-Inositol 1 Phosphate (IP1)
Animals used were male Long-Evans rats. They were used after acclimation for at least 1 week. Test compounds were suspended in 0.5% (w/v) aqueous methylcellulose solution, and the suspension was orally administered to the rats. After a given time, lithium chloride dissolved in saline was subcutaneously administered into the rats. After a given time, their bilateral hippocampi were isolated from the rats, and the wet weight thereof was measured. The isolated hippocampi were homogenized with HEPES (registered trademark) buffer, followed by centrifugation. The IP1 and protein concentrations in the supernatant were measured by IP-One HTRF assay kit (Cisbio Bioassays) and BCA protein assay kit (Thermo Scientific), respectively. The level of the IP1 production was expressed as the ratio of the concentration of IP1 to that of protein. The increase rate of the IP1 production was shown as a relative value when Vehicle administration group as 100%.

Experiment [2] deals with T1, human M1 receptor (hCHRM1) (Homo sapiens, UniProt P11229).
T1 construct: expressed in transfected cells
T1 sequence (P11229 1-460): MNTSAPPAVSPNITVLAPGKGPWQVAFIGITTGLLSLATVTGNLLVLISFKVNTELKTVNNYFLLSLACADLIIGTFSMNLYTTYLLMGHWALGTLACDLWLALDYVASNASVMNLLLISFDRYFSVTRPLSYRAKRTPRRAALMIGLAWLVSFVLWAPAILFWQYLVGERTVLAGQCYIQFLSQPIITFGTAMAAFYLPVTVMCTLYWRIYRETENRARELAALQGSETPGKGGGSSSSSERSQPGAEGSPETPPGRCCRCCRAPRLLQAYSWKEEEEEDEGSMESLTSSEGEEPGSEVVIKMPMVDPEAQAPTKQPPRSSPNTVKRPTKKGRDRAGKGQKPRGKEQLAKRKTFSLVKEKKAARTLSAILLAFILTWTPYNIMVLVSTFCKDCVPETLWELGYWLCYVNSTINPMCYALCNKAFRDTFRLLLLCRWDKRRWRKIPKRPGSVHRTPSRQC
Kind of experiment: Measurement of M1 receptor positive allosteric modulator (M1PAM) activity, Ca2+ fluorescence by FLIPRtetra (Experimental Example 1). The class given is cell-based. To be noted: for activity (%) at 10 μM: 10 μM test compound, 100% = acetylcholine 1 μM, 0% = DMSO; for EC50: inflection point of concentration-dependent curve, in presence of acetylcholine at EC20 (0.8-1.0 nM), CHO-K1 cells expressing hCHRM1, read-out: IP value. An outline of the steps:
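CHO-K1 cells stably expressing hCHRM1, loaded with Fluo-4 AM (probenecid), received compound with acetylcholine at EC20 (final 0.8-1.0 nM); Ca2+ fluorescence read 1 min by FLIPRtetra. Activity scaled 0% (DMSO) to 100% (1 μM acetylcholine); IP from inflection point of concentration curve.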

The test system of experiment [3] is Scopolamine-induced memory deficits models. As to the kind of experiment: Novel object recognition test (Experimental Example 4). As to conditions: scopolamine 0.1 mg/kg s.c., retention trial 4 hr after acquisition, mean±standard error. Type of experiment: in vivo, male Long-Evans rats. As to the method:
Novel Object Recognition Test Novel object recognition test is comprised of two trials called the acquisition and the retention trials. Scopolamine-induced memory deficits models were used for the test, and animals used were male Long-Evans rats. On the day before the test, for acclimation, the rats were allowed to freely move about the test box (40×40×50 cm) for 10 minutes. On the test day, the rats were acclimated to the test room for about 1 hr prior to the test. The test compounds were orally administered to the rats in a single dose a given time before the acquisition trial. For induction of learning and memory deficits, scopolamine (0.1 mg/kg) was subcutaneously administered into the rats 30 min before the acquisition trial. For the acquisition trial, two identical objects (A1, A2) were placed in the test box. The rats were put in the test box for 3 min, and the duration exploring each object was measured. The retention trial was performed 4 hr after the acquisition trial. For the retention trial, one familiar object (A3) used for the acquisition trial and one novel object (B) having a different shape from A3 were placed in the test box. After setting the objects, the rats were introduced into the test box and retention trial was performed for 3 min. The duration for exploring each object in the acquisition trial and the retention trial was measured, and the exploration rate of novel object was calculated. The exploration rate of novel object was expressed as (the duration exploring the novel object)/[(the duration exploring the novel object)+(the duration exploring the familiar object)]×100(%) at mean±standard error.

Experiment [4] addresses T1, human M1 receptor (hCHRM1). Kind of experiment: Measurement of M1 receptor positive allosteric modulator (M1PAM) activity, Ca2+ fluorescence by FDSS/μ cell (Experimental Example 2). As to conditions: for activity (%) at 10 μM: 10 μM test compound, 100% = acetylcholine 1 μM, 0% = DMSO; for EC50: inflection point of concentration-dependent curve, in presence of acetylcholine at EC20 (0.8-1.0 nM), CHO-K1 cells expressing hCHRM1, read-out: IP value. The class given is cell-based. The procedure:
Measurement of M1 Receptor Positive Allosteric Modulator (M1PAM) Activity
The activity of a test compound in the presence of acetylcholine at EC20 concentration (final concentration 0.8-1.0 nM), which affords an action corresponding to about 20% of the maximum activity, was measured as PAM activity. The method is as follows. CHO-K1 cells stably expressing a human M1 receptor (hCHRM1) were plated on a 384-well black clear bottom plate (BD Falcon) at 5,000 cells/well, and cultured in an incubator at 37° C., 5% CO2 for 1 day. The medium in the cell plate was removed, and a dye solution (prepared by adding Recording medium (DOJINDO LABORATORIES) to a final concentration of 1×concentration, Fluo-4 AM (DOJINDO LABORATORIES) to a final concentration of 2.5 μg/mL, Pluronic F127 (DOJINDO LABORATORIES) to a final concentration of 0.08%, and probenecid (DOJINDO LABORATORIES) to a final concentration of 1.25 mM to assay buffer (HBSS (Invitrogen), 20 mM HEPES (Invitrogen), 0.1% BSA (Wako Pure Chemical Industries, Ltd.))) was added at 30 μL/well. The cells were left standing in the incubator at 37° C., 5% CO2 for 30 min, and further left standing at room temperature for 30 min. A test compound prepared by diluting with assay buffer containing 3.2-4.0 nM acetylcholine was added at 10 μL/well, and the fluorescence was measured by FDSS/μ cell (Hamamatsu Photonics K.K.) for 1 min every 1 second. With the definition that the amount of change in the fluorescence on addition of acetylcholine (final concentration 1 μM) is 100% and that on addition of DMSO instead of a test compound is 0%, the activity (%) of the test compound was calculated, and the inflection point in the concentration-dependent curve of the test compound was calculated as IP values.

Regarding `Cc1ccc(Cc2cc3c(cc2C)OCN([C@H]2CCCC[C@@H]2O)C3=O)cn1` (single isomer, unassigned) [Example 28, 3-(trans-2-hydroxycyclohexyl)-7-methyl-6-((6-methylpyridin-3-yl)methyl)-2,3-dihydro-4H-1,3-benzoxazin-4-one monohydrochloride (optical isomer)], the “increase rate (%) at 10 mg/kg” value in experiment [1] was found to be 36%. In addition, in experiment [2], the “activity (%) at 10 μM” value is given as 108% and the EC50 was 20 nM.
As to `Cc1c(Cc2ccc(-n3cccn3)nc2)cc2c(c1F)OCN([C@H]1CCC[C@@H]1O)C2=O` [Example 13, 8-fluoro-3-((1S,2S)-2-hydroxycyclopentyl)-7-methyl-6-((6-(1H-pyrazol-1-yl)pyridin-3-yl)methyl)-2,3-dihydro-4H-1,3-benzoxazin-4-one], the “increase rate (%) at 10 mg/kg” value in experiment [1] came out at 102%. Besides, in experiment [2], the “activity (%) at 10 μM” value was 88% and the EC50 worked out at 6 nM. For the same compound, the “exploration rate of novel object (%)” value in experiment [3] (1 mg/kg oral) was 60.2±3.0%.
On to `Cc1c(Cc2ccc(Cl)nc2)cc2c(c1Cl)OCN([C@H]1CCC[C@@H]1O)C2=O` [Example 24, 8-chloro-6-((6-chloropyridin-3-yl)methyl)-3-((1S,2S)-2-hydroxycyclopentyl)-7-methyl-2,3-dihydro-4H-1,3-benzoxazin-4-one], for which, in experiment [1], the “increase rate (%) at 10 mg/kg” value is given as 26%. For the same compound, in experiment [2], the “activity (%) at 10 μM” value is 94% and the EC50 was found to be 3.1 nM. For the same compound, the “exploration rate of novel object (%)” value in experiment [3] (3 mg/kg oral) is reported as 63.5±2.4%.
With `Cc1cc2c(cc1Cc1ccc(-c3ccn(C)n3)cc1)C(=O)N([C@H]1COCC[C@@H]1O)CO2` [Example 104, 3-((3S,4S)-4-hydroxytetrahydro-2H-pyran-3-yl)-7-methyl-6-(4-(1-methyl-1H-pyrazol-3-yl)benzyl)-2,3-dihydro-4H-1,3-benzoxazin-4-one], the “increase rate (%) at 10 mg/kg” value in experiment [1] amounted to 86%. Besides, in experiment [3] (3 mg/kg oral), the “exploration rate of novel object (%)” value is 61.6±2.2%. Besides, in experiment [4], the “activity (%) at 10 μM” value is listed as 99% and the EC50 turned out to be 4.5 nM.
In the case of `C=Cc1ccc(Cc2cc3c(c(C)c2C)OCN([C@H]2COCC[C@@H]2O)C3=O)cn1` [Example 110, 1,5-anhydro-2,4-dideoxy-2-(7,8-dimethyl-4-oxo-6-((6-vinylpyridine-3-yl)methyl)-2H-1,3-benzoxazin-3(4H)-yl)-L-threo-pentitol], in experiment [4], the “activity (%) at 10 μM” value was 99% and the EC50 was 4.8 nM.
On to `Cc1c(Cc2ccc(C#C[Si](C)(C)C)nc2)cc2c(c1C)OCN([C@H]1COCC[C@@H]1O)C2=O` [Example 111, 1,5-anhydro-2,4-dideoxy-2-(7,8-dimethyl-4-oxo-6-((6-((trimethylsilyl)ethynyl)pyridin-3-yl)methyl)-2H-1,3-benzoxazin-3(4H)-yl)-L-threo-pentitol], for which, in experiment [4], the “activity (%) at 10 μM” value came to 96% and the EC50 is 68 nM.
As to `C#Cc1ccc(Cc2cc3c(c(C)c2C)OCN([C@H]2COCC[C@@H]2O)C3=O)cn1` [Example 112, 1,5-anhydro-2,4-dideoxy-2-(6-((6-ethynylpyridine-3-yl)methyl)-7,8-dimethyl-4-oxo-2H-1,3-benzoxazin-3(4H)-yl)-L-threo-pentitol], in experiment [4], the “activity (%) at 10 μM” value is given as 99% and the EC50 turned out to be 9.1 nM.
The matching figures for `Cc1c(Cc2ccc3nn(C)cc3c2)cc2c(c1C)OCN([C@H]1COCC[C@@H]1O)C2=O` [Example 116, 1,5-anhydro-2,4-dideoxy-2-(7,8-dimethyl-6-((2-methyl-2H-indazol-5-yl)methyl)-4-oxo-2H-1,3-benzoxazin-3(4H)-yl)-L-threo-pentitol]: 96% and 7 nM.
As for `CCc1cc2c(cc1Cc1ccc(OC)nc1)C(=O)N([C@H]1COCC[C@@H]1O)CO2` [Example 118, 1,5-anhydro-2,4-dideoxy-2-(7-ethyl-6-((6-methoxypyridin-3-yl)methyl)-4-oxo-2H-1,3-benzoxazin-3(4H)-yl)-L-threo-pentitol], in experiment [4], the “activity (%) at 10 μM” value is given as 116% and the EC50 was 47 nM.
The matching figures for `Cc1cc2c(cc1Cc1ccc(Cl)nc1)C(=O)N([C@H]1CCCC[C@@H]1O)CO2` [Example 140, 6-((6-chloropyridin-3-yl)methyl)-3-((1S,2S)-2-hydroxycyclohexyl)-7-methyl-2,3-dihydro-4H-1,3-benzoxazin-4-one]: 101% and 10 nM.
The matching figures for `Cc1c(Cc2ccc(-n3nccn3)cc2)cc2c(c1C)OCN([C@H]1COCC[C@@H]1O)C2=O` [Example 142, 1,5-anhydro-2,4-dideoxy-2-(7,8-dimethyl-4-oxo-6-(4-(2H-1,2,3-triazol-2-yl)benzyl)-2H-1,3-benzoxazin-3(4H)-yl)-L-threo-pentitol]: 99% and 38 nM.
